Results taken from patent US11987588B2, “Modulators of the beta-3 adrenergic receptor useful for the treatment or prevention of heart failure and disorders related thereto” (Arena Pharmaceuticals, Inc., priority 2017, dated 2024).

Target: Beta-3 Adrenergic Receptor (Homo sapiens (Human), UniProt P13945)
Test: Homogeneous Time-Resolved Fluorescence (HTRF) cAMP antagonist assay, IC50 determination
Type: cell-based
Conditions: CHO-K1 cells stably expressing recombinant receptor, isoproterenol at EC90
Outline: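 In this functional readout, recombinant CHO-K1 cells received compound, then isoproterenol at its EC90. After 1 h at room temperature, cAMP levels were determined by HTRF using an on-plate standard curve, and IC50 values were fitted.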

Chain of Beta-3 Adrenergic Receptor (P13945 whole entry, species assumed): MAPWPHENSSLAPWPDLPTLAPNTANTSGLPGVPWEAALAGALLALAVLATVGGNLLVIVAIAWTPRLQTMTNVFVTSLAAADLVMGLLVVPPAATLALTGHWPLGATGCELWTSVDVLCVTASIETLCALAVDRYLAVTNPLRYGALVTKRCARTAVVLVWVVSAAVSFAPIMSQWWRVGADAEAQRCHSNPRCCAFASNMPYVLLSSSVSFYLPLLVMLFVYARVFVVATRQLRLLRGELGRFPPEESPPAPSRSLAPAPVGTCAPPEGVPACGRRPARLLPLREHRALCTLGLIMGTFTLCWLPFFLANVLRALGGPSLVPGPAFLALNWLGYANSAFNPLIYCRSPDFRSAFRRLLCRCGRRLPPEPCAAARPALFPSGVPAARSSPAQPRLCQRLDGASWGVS

Row | SMILES | IC50 [nM]
1 | CNS(=O)(=O)c1cccc(OC[C@@H](O)CNC2COC3(CCN(S(=O)(=O)c4ccc(Br)c(Cl)c4)CC3)C2)c1 (stereo partly drawn) [Compound 155, 3-((2S)-3-(8-(4-bromo-3-chlorophenylsulfonyl)-1-oxa-8-azaspiro[4.5]decan-3-ylamino)-2-hydroxypropoxy)-N-methylbenzenesulfonamide] | 4.36
2 | CNS(=O)(=O)c1cccc(OC[C@@H](O)CNC2COC3(CCN(S(=O)(=O)c4c(F)cccc4F)CC3)C2)c1 (stereo partly drawn) [Compound 156, 3-((2S)-3-(8-(2,6-difluorophenylsulfonyl)-1-oxa-8-azaspiro[4.5]decan-3-ylamino)-2-hydroxypropoxy)-N-methylbenzenesulfonamide] | 25.4
3 | CNS(=O)(=O)c1cccc(OC[C@@H](O)CNC2COC3(CCN(S(=O)(=O)c4ccc(C#N)cc4Cl)CC3)C2)c1 (stereo partly drawn) [Compound 157, 3-((2S)-3-(8-(2-chloro-4-cyanophenylsulfonyl)-1-oxa-8-azaspiro[4.5]decan-3-ylamino)-2-hydroxypropoxy)-N-methylbenzenesulfonamide] | 26.4
4 | CNS(=O)(=O)c1cccc(OC[C@@H](O)CNC2COC3(CCN(S(=O)(=O)c4ccc(Cl)cc4Cl)CC3)C2)c1 (stereo partly drawn) [Compound 158, 3-((2S)-3-(8-(2,4-dichlorophenylsulfonyl)-1-oxa-8-azaspiro[4.5]decan-3-ylamino)-2-hydroxypropoxy)-N-methylbenzenesulfonamide] | 25.6
5 | CNS(=O)(=O)c1cccc(OC[C@@H](O)CNC2COC3(CCN(S(=O)(=O)c4ccc(Br)c(C)c4)CC3)C2)c1 (stereo partly drawn) [Compound 159, 3-((2S)-3-(8-(4-bromo-3-methylphenylsulfonyl)-1-oxa-8-azaspiro[4.5]decan-3-ylamino)-2-hydroxypropoxy)-N-methylbenzenesulfonamide] | 4.78
6 | CNS(=O)(=O)c1cccc(OC[C@@H](O)CNC2COC3(CCN(S(=O)(=O)c4cccc(C)c4F)CC3)C2)c1 (stereo partly drawn) [Compound 160, 3-((2S)-3-(8-(2-fluoro-3-methylphenylsulfonyl)-1-oxa-8-azaspiro[4.5]decan-3-ylamino)-2-hydroxypropoxy)-N-methylbenzenesulfonamide] | 14.6
7 | CNS(=O)(=O)c1cccc(OC[C@@H](O)CNC2COC3(CCN(S(=O)(=O)c4cccc(Oc5ccc(C(F)(F)F)cc5)c4)CC3)C2)c1 (stereo partly drawn) [Compound 161, 3-((2S)-2-hydroxy-3-(8-(3-(4-(trifluoromethyl)phenoxy)phenylsulfonyl)-1-oxa-8-azaspiro[4.5]decan-3-ylamino)propoxy)-N-methylbenzenesulfonamide] | 83.7
8 | CNS(=O)(=O)c1cccc(OC[C@@H](O)CNC2COC3(CCN(S(=O)(=O)c4cc(C)oc4C(F)(F)F)CC3)C2)c1 (stereo partly drawn) [Compound 162, 3-((2S)-2-hydroxy-3-(8-(5-methyl-2-(trifluoromethyl)furan-3-ylsulfonyl)-1-oxa-8-azaspiro[4.5]decan-3-ylamino)propoxy)-N-methylbenzenesulfonamide] | 42.6
9 | CNS(=O)(=O)c1cccc(OC[C@@H](O)CNC2COC3(CCN(S(=O)(=O)c4c(C)nn(C)c4Cl)CC3)C2)c1 (stereo partly drawn) [Compound 163, 3-((2S)-3-(8-(5-chloro-1,3-dimethyl-1H-pyrazol-4-ylsulfonyl)-1-oxa-8-azaspiro[4.5]decan-3-ylamino)-2-hydroxypropoxy)-N-methylbenzenesulfonamide] | 64.1
10 | O=C1CCCN1CCNS(=O)(=O)c1cccc(OC[C@@H](O)CNC2COC3(CCN(S(=O)(=O)c4ccc5ccccc5c4)CC3)C2)c1 (stereo partly drawn) [Compound 164, 3-((2S)-2-hydroxy-3-(8-(naphthalen-2-ylsulfonyl)-1-oxa-8-azaspiro[4.5]decan-3-ylamino)propoxy)-N-(2-(2-oxopyrrolidin-1-yl)ethyl)benzenesulfonamide] | 84.9
11 | CCN1CCC(NS(=O)(=O)c2cccc(OC[C@@H](O)CNC3COC4(CCN(S(=O)(=O)c5ccc6ccccc6c5)CC4)C3)c2)CC1 (stereo partly drawn) [Compound 165, N-(1-ethylpiperidin-4-yl)-3-((2S)-2-hydroxy-3-(8-(naphthalen-2-ylsulfonyl)-1-oxa-8-azaspiro[4.5]decan-3-ylamino)propoxy)benzenesulfonamide] | 311
12 | O=S(=O)(NC[C@H](O)CO)c1cccc(OC[C@@H](O)CNC2COC3(CCN(S(=O)(=O)c4ccc5ccccc5c4)CC3)C2)c1 (stereo partly drawn) [Compound 166, N—((S)-2,3-dihydroxypropyl)-3-((2S)-2-hydroxy-3-(8-(naphthalen-2-ylsulfonyl)-1-oxa-8-azaspiro[4.5]decan-3-ylamino)propoxy)benzenesulfonamide] | 143
13 | CN(C)CCNS(=O)(=O)c1cccc(OC[C@@H](O)CNC2COC3(CCN(S(=O)(=O)c4ccc5ccccc5c4)CC3)C2)c1 (stereo partly drawn) [Compound 167, N-(2-(dimethylamino)ethyl)-3-((2S)-2-hydroxy-3-(8-(naphthalen-2-ylsulfonyl)-1-oxa-8-azaspiro[4.5]decan-3-ylamino)propoxy)benzenesulfonamide] | 2150
14 | O=S(=O)(NCC1CCCNC1)c1cccc(OC[C@@H](O)CNC2COC3(CCN(S(=O)(=O)c4ccc5ccccc5c4)CC3)C2)c1 (stereo partly drawn) [Compound 168, 3-((2S)-2-hydroxy-3-(8-(naphthalen-2-ylsulfonyl)-1-oxa-8-azaspiro[4.5]decan-3-ylamino)propoxy)-N-(piperidin-3-ylmethyl)benzenesulfonamide] | 1470
15 | CNS(=O)(=O)c1cccc(OC[C@@H](O)CNC2COC3(CCN(S(=O)(=O)c4ccc5cc(OC)ccc5c4)CC3)C2)c1 (stereo partly drawn) [Compound 169, 3-((2S)-2-hydroxy-3-(8-(6-methoxynaphthalen-2-ylsulfonyl)-1-oxa-8-azaspiro[4.5]decan-3-ylamino)propoxy)-N-methylbenzenesulfonamide] | 11.6
16 | CNS(=O)(=O)c1cccc(OC[C@@H](O)CNC2COC3(CCN(S(=O)(=O)c4cccc(Oc5ccccc5C(F)(F)F)c4)CC3)C2)c1 (stereo partly drawn) [Compound 170, 3-((2S)-2-hydroxy-3-(8-(3-(2-(trifluoromethyl)phenoxy)phenylsulfonyl)-1-oxa-8-azaspiro[4.5]decan-3-ylamino)propoxy)-N-methylbenzenesulfonamide] | 50.6

Second part, the compound after the results:

Row | IC50 [nM] | SMILES
17 | 30.7 | CNS(=O)(=O)c1cccc(OC[C@@H](O)CNC2COC3(CCN(S(=O)(=O)c4ccccc4OC(F)(F)F)CC3)C2)c1 (stereo partly drawn) [Compound 171, 3-((2S)-2-hydroxy-3-(8-(2-(trifluoromethoxy)phenylsulfonyl)-1-oxa-8-azaspiro[4.5]decan-3-ylamino)propoxy)-N-methylbenzenesulfonamide]
18 | 78.9 | CNS(=O)(=O)c1cccc(OC[C@@H](O)CNC2COC3(CCN(S(=O)(=O)Cc4ccccc4)CC3)C2)c1 (stereo partly drawn) [Compound 172, 3-((2S)-3-(8-(benzylsulfonyl)-1-oxa-8-azaspiro[4.5]decan-3-ylamino)-2-hydroxypropoxy)-N-methylbenzenesulfonamide]
19 | 29 | CNS(=O)(=O)c1cccc(OC[C@@H](O)CNC2COC3(CCN(S(=O)(=O)c4ccc(OC)c5nonc45)CC3)C2)c1 (stereo partly drawn) [Compound 173, 3-((2S)-2-hydroxy-3-(8-(7-methoxybenzo[c][1,2,5]oxadiazol-4-ylsulfonyl)-1-oxa-8-azaspiro[4.5]decan-3-ylamino)propoxy)-N-methylbenzenesulfonamide]
20 | 125 | CNS(=O)(=O)c1cccc(OC[C@@H](O)CNC2COC3(CCN(S(=O)(=O)c4ccccc4-c4ccccc4)CC3)C2)c1 (stereo partly drawn) [Compound 174, 3-((2S)-3-(8-(biphenyl-2-ylsulfonyl)-1-oxa-8-azaspiro[4.5]decan-3-ylamino)-2-hydroxypropoxy)-N-methylbenzenesulfonamide]
21 | 23.8 | CNS(=O)(=O)c1cccc(OC[C@@H](O)CNC2COC3(CCN(S(=O)(=O)c4c(C)ccc5nonc45)CC3)C2)c1 (stereo partly drawn) [Compound 175, 3-((2S)-2-hydroxy-3-(8-(5-methylbenzo[c][1,2,5]oxadiazol-4-ylsulfonyl)-1-oxa-8-azaspiro[4.5]decan-3-ylamino)propoxy)-N-methylbenzenesulfonamide]
22 | 23.3 | CNS(=O)(=O)c1cccc(OC[C@@H](O)CNC2COC3(CCN(S(=O)(=O)c4cc(C)ccc4OC)CC3)C2)c1 (stereo partly drawn) [Compound 176, 3-((2S)-2-hydroxy-3-(8-(2-methoxy-5-methylphenylsulfonyl)-1-oxa-8-azaspiro[4.5]decan-3-ylamino)propoxy)-N-methylbenzenesulfonamide]
23 | 11.9 | CNS(=O)(=O)c1cccc(OC[C@@H](O)CNC2COC3(CCN(S(=O)(=O)c4ccc5nsnc5c4)CC3)C2)c1 (stereo partly drawn) [Compound 177, 3-((2S)-3-(8-(benzo[c][1,2,5]thiadiazol-5-ylsulfonyl)-1-oxa-8-azaspiro[4.5]decan-3-ylamino)-2-hydroxypropoxy)-N-methylbenzenesulfonamide]
24 | 20.8 | CNS(=O)(=O)c1cccc(OC[C@@H](O)CNC2COC3(CCN(S(=O)(=O)c4cc(Cl)c(Cl)s4)CC3)C2)c1 (stereo partly drawn) [Compound 178, 3-((2S)-3-(8-(4,5-dichlorothiophen-2-ylsulfonyl)-1-oxa-8-azaspiro[4.5]decan-3-ylamino)-2-hydroxypropoxy)-N-methylbenzenesulfonamide]
25 | 8.15 | CNS(=O)(=O)c1cccc(OC[C@@H](O)CNC2COC3(CCN(S(=O)(=O)c4cc(C)cc(F)c4)CC3)C2)c1 (stereo partly drawn) [Compound 179, 3-((2S)-3-(8-(3-fluoro-5-methylphenylsulfonyl)-1-oxa-8-azaspiro[4.5]decan-3-ylamino)-2-hydroxypropoxy)-N-methylbenzenesulfonamide]
26 | 29.8 | CNS(=O)(=O)c1cccc(OC[C@@H](O)CNC2COC3(CCN(S(=O)(=O)c4cc(C)ccc4C#N)CC3)C2)c1 (stereo partly drawn) [Compound 180, 3-((2S)-3-(8-(2-cyano-5-methylphenylsulfonyl)-1-oxa-8-azaspiro[4.5]decan-3-ylamino)-2-hydroxypropoxy)-N-methylbenzenesulfonamide]
27 | 24.3 | CNS(=O)(=O)c1cccc(OC[C@@H](O)CNC2COC3(CCN(S(=O)(=O)c4ccc(Cl)s4)CC3)C2)c1 (stereo partly drawn) [Compound 181, 3-((2S)-3-(8-(5-chlorothiophen-2-ylsulfonyl)-1-oxa-8-azaspiro[4.5]decan-3-ylamino)-2-hydroxypropoxy)-N-methylbenzenesulfonamide]
